For the test, the system named is whitefly Bemisia tabaci. Kind of test: Bemisia test (plant-damaging insects; infested cotton plants immersed in active compound preparation). The class given is in vivo. As to conditions: single active compound, eggs, larvae and pupae on cotton plants (Gossypium hirsutum). The method, then:
• Bemisia Test • Solvent: 7.5 parts by weight of dimethylformamide Emulsifier: 2.5 parts by weight of alkylaryl polyglycol ether
To produce a suitable preparation of active compound, 1 part by weight of active compound is mixed with the stated amounts of solvent and emulsifier, and the concentrate is diluted with water to the desired concentration.
Cotton plants (Gossypium hirsutum) which are infested with eggs, larvae and pupae of the whitefly Bemisia tabaci are immersed in a preparation of active compound of the desired concentration.
After the desired period of time, the kill in % is determined. 100% means that all animals have been killed; 0% means that none of the animals have been killed.

For `Cc1cc(C)c(C2=C(OC(=O)CC(C)(C)C)C3(CCCC3)OC2=O)c(C)c1` [Ex. (I-b-1)], the “Kill rate in % after 10 d” value is reported as 0% (4 ppm) and 80% (20 ppm).

As for `CC1=NNC(=O)N(/N=C/c2cccnc2)C1` [Pymetrozin, pymetrozin], the “Kill rate in % after 10 d” value (4 ppm) came out at 0%.

Take `CC(COc1ccc(Oc2ccccc2)cc1)Oc1ccccn1` (stereo not shown) [Pyriproxiphen, pyriproxyfen]: under “20 ppm”, the “Kill rate in % after 10 d” value is listed as 0%.

The values above are taken from patent US7244750B2, “Active substance combinations having insecticidal and acaricidal properties” (Bayer CropScience Aktiengesellschaft, priority 2000, dated 2007).
